# Test results published in publication PMC7926980, “The Antiproliferative and Apoptotic Effect of a Novel Synthesized S-Triazine Dipeptide Series, and Toxicity Screening in Zebrafish Embryos” (Molecules, 2021).
# Experiments:
# HEK-293 cells = experiment: MTT cell viability assay, non-tumorigenic HEK-293; assay type: cell-based; settings: Homo sapiens, HEK293, 72 h, non-tumorigenic cell line
# Method: Additional assays were run with 3a, the most promising compound. Its toxicity was evaluated using HEK-293 (normal human embryonic kidney), which is a non-tumorigenic cell line.
# In order to calculate the relative IC50 values, the antiproliferative effect of compounds 3a–o was tested in three cancer cell lines (MCF-7, MDA-MB-231, HCT-116) and normal epithelial embryonic kidney cells (HEK-293) using the MTT viability assay. The cells were seeded in 96-well plates at a density of 10 × 10^3 cells/mL, in a total volume of 200 µL per well. In total, 0.1% DMSO was used as a vehicle control. After 24 h, the cells were treated with 2 µL of the test compound, which had been pre-prepared as a stock solution to furnish the concentration range of the study (0.01–100 µM), and re-incubated for 72 h. The culture medium was then removed, and the cells were washed with phosphate-buffered saline (PBS), and 100 µL MTT was added (for a final concentration of 5 mg/mL MTT). The cells were incubated for 4 h in darkness at 37 °C. Next, 200 µL DMSO was added to each well, and the cells were maintained at room temperature in darkness for 20 min. The absorbance was detected with a microplate reader at 570 nm. The results were expressed as a percentage of viability relative to the vehicle control (100%). […]
# MCF-7 cells [1] = experiment: Cell cycle analysis by PI staining flow cytometry; assay type: cell-based, human; settings: 2 µM, 48 h
# Method: The mechanism underlying the growth-inhibitory effect of 3a was further examined. The effect of 3a on cell cycle events in MCF-7 cells, after incubation at 2 µM for 48 h, was analyzed by a DNA flow cytometry assay of propidium iodide (PI) staining (Figure 4A). Compound 3a induced a statistically significant arrest of MCF-7 cells in the G2/M stage (36.8%) compared to the untreated cell line (11.5%) (Figure 4B).
# The MCF-7 cells were treated with compound 3a (2 µM) and incubated for 48 h. After trypsinization, the cells were collected and centrifuged at 800× g for 15 min. They were then fixed in ice-cold 70% ethanol overnight at −20 °C. The fixed cells were centrifuged at 800× g for 15 min and stained with 50 μg/mL PI, containing 50 μg/mL DNase-free RNase A, at 37 °C for 30 min. The DNA content of the cells (10,000 cells) was analyzed by flow cytometer at 488 nm, using a FACSCalibur flow cytometer (BD Biosciences, San Jose, CA, USA).
# Figure 4 (A) Effect of compound 3a on the cell cycle and apoptosis in breast cancer MCF-7 cells. The cells were treated with either a vehicle (0.1% ethanol (v/v)) or 3a (2 µM) for 48 h. The cell cycle analysis was performed on histograms of gated counts per DNA area (FL2-A). (B) Quantitative analysis of 4N (G2/M), 2N (G0G1), >2N (S) and <2N (sub-G1). The DNA content was determined with CellQuest software. […]
# MCF-7 cells [2] = experiment: Annexin V-FITC/PI apoptotic assay by flow cytometry; assay type: cell-based, human; settings: 2 µM, 48 h; control 8.3%
# Method: In order to determine the capacity of compound 3a to induce apoptosis, an Annexin V-FITC/PI dual staining assay was performed on the MCF-7 cells by flow cytometry.
# Flow cytometry using Annexin V and propidium iodide (PI) was performed in order to detect apoptotic cell death. MCF-7 cells were seeded at a density of 1 × 10^5 cells/well, treated with the vehicle (0.1% (v/v) EtOH) or compound 3a (2 µM), and incubated for 48 h. The cells were then harvested and washed twice in 1X binding buffer, and incubated in the dark for 30 min on ice in Annexin V-containing binding buffer [1:100]. They were then re-suspended in PI-containing binding buffer [1:1000]. The samples were analyzed immediately using a BD Accuri flow cytometer, and GraphPad Prism software version 5.01 was used to analyze the data. Four populations were identified during the assay: Annexin V-negative and PI-negative (Q4, healthy cells), Annexin V-positive and PI-negative (Q3, early apoptosis), Annexin V-positive and PI-positive (Q2, late apoptosis), and Annexin V-negative and PI-positive (Q1, necrosis).
# Figure 5 Compound 3a potently induces apoptosis in breast cancer MCF-7 cells (Annexin V/PI Fluorescence-activated cell sorting (FACS)). (A) Flow cytometry analysis of the effect of compound 3a on MCF-7 cells. […] (B) The quantitative analysis of the apoptosis. […]
compound,measurement,setting,value
"COC(=O)CNC(=O)CNc1nc(Nc2ccccc2)nc(N2CCOCC2)n1 [Compound 3a, Methyl (4-morpholino-6-(phenylamino)-1,3,5-triazin-2-yl) glycylglycinate]",IC50,HEK-293 cells,> 50 µM
same,cells in the sub-G1 phase,MCF-7 cells [1]; control 3.7%,17.3%
same,MCF-7 cells in the G2/M stage,MCF-7 cells [1]; untreated 11.5%,36.8%
same,Annexin V-positive cells (total apoptotic cells),MCF-7 cells [2],37.4%
